The source of these data is PMC4685510, “A Cell Biologist’s Field Guide to Aurora Kinase Inhibitors” (Frontiers in Oncology, 2015).

What all share (experiment): biochemical
Format in all cases: biochemical

In assay [1] the target is 363 human kinases (including Aurora A/B/C) (Homo sapiens, UniProt Q15746). The conditions noted are these: MLCK/MYLK; for remaining activity at 0.5 µM / remaining activity at 0.1 µM: read-out: % Enzyme Activity (relative to DMSO controls); for remaining activity at 0.1 µM: 100 nM.
Description: (§1) However, the Aurora A/B selectivity ratios derived from our in vitro and in vivo data can be compared to prioritize inhibitors.
Assay [2] concerns the target 363 human kinases (including Aurora A/B/C) (Homo sapiens, UniProt Q86V86). To be noted: PIM3; for remaining activity at 0.5 µM / remaining activity at 0.1 µM: read-out: % Enzyme Activity (relative to DMSO controls); for remaining activity at 0.1 µM: 100 nM.
Description: as §1
Assay [3] addresses 363 human kinases (including Aurora A/B/C) (Homo sapiens, UniProt P22694). The conditions noted are these: PKAcb; for remaining activity at 0.5 µM / remaining activity at 0.1 µM: read-out: % Enzyme Activity (relative to DMSO controls); for remaining activity at 0.1 µM: 100 nM.
Description: as §1
In assay [4] the target is 363 human kinases (including Aurora A/B/C) (Homo sapiens, UniProt Q9Y5S2). To be noted: MRCKb/CDC42BPB; for remaining activity at 0.5 µM / remaining activity at 0.1 µM: read-out: % Enzyme Activity (relative to DMSO controls); for remaining activity at 0.1 µM: 100 nM.
Description: as §1
Assay [5] addresses T1, 363 human kinases (including Aurora A/B/C) (Homo sapiens, UniProt P10398).
T1 sequence (P10398 1-606): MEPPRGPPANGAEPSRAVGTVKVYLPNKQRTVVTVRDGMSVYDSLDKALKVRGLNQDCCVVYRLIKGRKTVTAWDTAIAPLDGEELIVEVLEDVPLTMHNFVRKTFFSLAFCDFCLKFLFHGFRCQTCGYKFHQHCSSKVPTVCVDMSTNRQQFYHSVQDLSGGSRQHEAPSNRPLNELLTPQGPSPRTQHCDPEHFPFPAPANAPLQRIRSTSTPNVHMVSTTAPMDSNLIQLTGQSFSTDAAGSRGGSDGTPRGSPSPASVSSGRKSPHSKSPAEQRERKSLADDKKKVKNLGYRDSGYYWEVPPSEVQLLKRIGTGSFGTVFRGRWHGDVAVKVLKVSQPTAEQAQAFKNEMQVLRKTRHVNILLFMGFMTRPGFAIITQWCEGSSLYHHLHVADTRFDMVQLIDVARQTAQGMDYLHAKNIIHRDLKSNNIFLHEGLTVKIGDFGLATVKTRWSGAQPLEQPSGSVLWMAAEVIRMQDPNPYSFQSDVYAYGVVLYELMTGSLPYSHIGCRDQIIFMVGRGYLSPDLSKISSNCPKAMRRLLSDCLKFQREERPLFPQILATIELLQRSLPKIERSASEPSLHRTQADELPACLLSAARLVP
To be noted: ARAF, [ATP] 15 µM; for remaining activity at 0.5 µM / remaining activity at 0.1 µM: read-out: % Enzyme Activity (relative to DMSO controls); for remaining activity at 0.1 µM: 100 nM.
Description: as §1

Assay [6] has as its target 363 human kinases (including Aurora A/B/C) (Homo sapiens, UniProt Q9BYP7). The conditions noted are these: WNK3; for remaining activity at 0.5 µM / remaining activity at 0.1 µM: read-out: % Enzyme Activity (relative to DMSO controls); for remaining activity at 0.1 µM: 100 nM.
Description: as §1
Assay [7] has as its target 363 human kinases (including Aurora A/B/C) (Homo sapiens, UniProt Q14289). The conditions noted are these: PYK2; for remaining activity at 0.5 µM / remaining activity at 0.1 µM: read-out: % Enzyme Activity (relative to DMSO controls); for remaining activity at 0.1 µM: 100 nM.
Description: as §1
For assay [8], the target named is 363 human kinases (including Aurora A/B/C) (Homo sapiens, UniProt Q13177). The conditions noted are these: PAK2; for remaining activity at 0.5 µM / remaining activity at 0.1 µM: read-out: % Enzyme Activity (relative to DMSO controls); for remaining activity at 0.1 µM: 100 nM.
Description: as §1
The target in assay [9] is T2, 363 human kinases (including Aurora A/B/C) (Homo sapiens, UniProt P51817).
T2 sequence (P51817 1-358): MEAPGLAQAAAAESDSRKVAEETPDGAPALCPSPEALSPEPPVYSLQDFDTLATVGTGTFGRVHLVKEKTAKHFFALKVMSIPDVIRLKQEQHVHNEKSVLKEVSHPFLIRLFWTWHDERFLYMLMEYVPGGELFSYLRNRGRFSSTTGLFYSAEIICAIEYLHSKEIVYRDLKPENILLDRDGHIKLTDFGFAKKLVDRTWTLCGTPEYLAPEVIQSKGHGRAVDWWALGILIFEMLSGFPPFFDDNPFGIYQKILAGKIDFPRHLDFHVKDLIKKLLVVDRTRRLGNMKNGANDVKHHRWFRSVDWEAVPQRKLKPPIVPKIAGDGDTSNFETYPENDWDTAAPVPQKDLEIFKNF
To be noted: PRKX; for remaining activity at 0.5 µM / remaining activity at 0.1 µM: read-out: % Enzyme Activity (relative to DMSO controls); for remaining activity at 0.1 µM: 100 nM.
Description: as §1

Assay [10] deals with 363 human kinases (including Aurora A/B/C) (Homo sapiens, UniProt P05771). The conditions noted are these: PKCb1; for remaining activity at 0.5 µM / remaining activity at 0.1 µM: read-out: % Enzyme Activity (relative to DMSO controls); for remaining activity at 0.1 µM: 100 nM.
Description: as §1
Assay [11] addresses T3, 363 human kinases (including Aurora A/B/C) (Homo sapiens, UniProt Q13873).
T3 sequence (Q13873 27-1038): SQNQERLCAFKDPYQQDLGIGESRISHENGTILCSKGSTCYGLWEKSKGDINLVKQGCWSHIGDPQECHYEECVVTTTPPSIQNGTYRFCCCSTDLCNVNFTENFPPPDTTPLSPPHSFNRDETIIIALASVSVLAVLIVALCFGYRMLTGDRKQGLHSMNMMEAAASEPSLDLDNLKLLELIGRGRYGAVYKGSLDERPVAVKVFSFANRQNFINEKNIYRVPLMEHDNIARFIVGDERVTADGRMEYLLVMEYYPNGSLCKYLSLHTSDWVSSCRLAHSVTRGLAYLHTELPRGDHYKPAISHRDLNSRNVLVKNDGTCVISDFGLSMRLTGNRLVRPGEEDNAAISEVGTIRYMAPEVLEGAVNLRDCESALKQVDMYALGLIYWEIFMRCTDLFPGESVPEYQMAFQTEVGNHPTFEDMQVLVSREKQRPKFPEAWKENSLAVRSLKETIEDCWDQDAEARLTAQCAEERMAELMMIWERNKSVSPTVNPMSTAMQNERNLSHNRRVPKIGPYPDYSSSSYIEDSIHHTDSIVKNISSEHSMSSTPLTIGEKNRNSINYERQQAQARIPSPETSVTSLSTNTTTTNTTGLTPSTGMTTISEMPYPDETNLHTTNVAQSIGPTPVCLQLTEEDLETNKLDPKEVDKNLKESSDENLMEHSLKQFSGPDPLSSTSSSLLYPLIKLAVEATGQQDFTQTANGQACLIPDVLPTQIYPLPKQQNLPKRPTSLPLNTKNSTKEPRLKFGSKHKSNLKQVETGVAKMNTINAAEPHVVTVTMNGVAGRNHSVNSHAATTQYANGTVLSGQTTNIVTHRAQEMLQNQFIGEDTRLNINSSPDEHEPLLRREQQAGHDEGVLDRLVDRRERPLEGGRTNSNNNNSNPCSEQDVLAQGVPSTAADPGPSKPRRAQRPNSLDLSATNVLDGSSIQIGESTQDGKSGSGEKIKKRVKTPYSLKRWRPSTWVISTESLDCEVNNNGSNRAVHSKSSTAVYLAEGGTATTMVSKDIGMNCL
To be noted: BMPR2, [ATP] 15 µM; for remaining activity at 0.5 µM / remaining activity at 0.1 µM: read-out: % Enzyme Activity (relative to DMSO controls); for remaining activity at 0.1 µM: 100 nM.
Description: as §1

Assay [12] deals with 363 human kinases (including Aurora A/B/C) (Homo sapiens, UniProt Q15569). The conditions noted are these: TESK1; for remaining activity at 0.5 µM / remaining activity at 0.1 µM: read-out: % Enzyme Activity (relative to DMSO controls); for remaining activity at 0.1 µM: 100 nM.
363 human kinases (including Aurora A/B/C) (Homo sapiens, UniProt Q15569), sequence (Q15569 whole entry): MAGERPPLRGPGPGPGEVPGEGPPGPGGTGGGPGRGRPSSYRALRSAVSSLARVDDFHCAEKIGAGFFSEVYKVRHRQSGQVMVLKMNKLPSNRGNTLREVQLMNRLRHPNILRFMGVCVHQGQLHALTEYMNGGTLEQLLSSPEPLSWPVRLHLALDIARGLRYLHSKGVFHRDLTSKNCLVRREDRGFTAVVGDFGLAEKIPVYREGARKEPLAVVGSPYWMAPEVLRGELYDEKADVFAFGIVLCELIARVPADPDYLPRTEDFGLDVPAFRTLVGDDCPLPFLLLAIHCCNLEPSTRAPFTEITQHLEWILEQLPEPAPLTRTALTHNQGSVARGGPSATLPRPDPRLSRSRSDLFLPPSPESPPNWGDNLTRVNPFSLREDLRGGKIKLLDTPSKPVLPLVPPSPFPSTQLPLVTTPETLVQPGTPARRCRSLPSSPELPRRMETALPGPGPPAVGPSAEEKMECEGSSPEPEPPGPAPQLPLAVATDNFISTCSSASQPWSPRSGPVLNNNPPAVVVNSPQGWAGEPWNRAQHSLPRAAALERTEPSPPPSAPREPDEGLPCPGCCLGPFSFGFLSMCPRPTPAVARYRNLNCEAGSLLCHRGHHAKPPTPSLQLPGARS
Description: as §1

363 human kinases (including Aurora A/B/C) (Homo sapiens, UniProt Q14289), sequence (Q14289 whole entry): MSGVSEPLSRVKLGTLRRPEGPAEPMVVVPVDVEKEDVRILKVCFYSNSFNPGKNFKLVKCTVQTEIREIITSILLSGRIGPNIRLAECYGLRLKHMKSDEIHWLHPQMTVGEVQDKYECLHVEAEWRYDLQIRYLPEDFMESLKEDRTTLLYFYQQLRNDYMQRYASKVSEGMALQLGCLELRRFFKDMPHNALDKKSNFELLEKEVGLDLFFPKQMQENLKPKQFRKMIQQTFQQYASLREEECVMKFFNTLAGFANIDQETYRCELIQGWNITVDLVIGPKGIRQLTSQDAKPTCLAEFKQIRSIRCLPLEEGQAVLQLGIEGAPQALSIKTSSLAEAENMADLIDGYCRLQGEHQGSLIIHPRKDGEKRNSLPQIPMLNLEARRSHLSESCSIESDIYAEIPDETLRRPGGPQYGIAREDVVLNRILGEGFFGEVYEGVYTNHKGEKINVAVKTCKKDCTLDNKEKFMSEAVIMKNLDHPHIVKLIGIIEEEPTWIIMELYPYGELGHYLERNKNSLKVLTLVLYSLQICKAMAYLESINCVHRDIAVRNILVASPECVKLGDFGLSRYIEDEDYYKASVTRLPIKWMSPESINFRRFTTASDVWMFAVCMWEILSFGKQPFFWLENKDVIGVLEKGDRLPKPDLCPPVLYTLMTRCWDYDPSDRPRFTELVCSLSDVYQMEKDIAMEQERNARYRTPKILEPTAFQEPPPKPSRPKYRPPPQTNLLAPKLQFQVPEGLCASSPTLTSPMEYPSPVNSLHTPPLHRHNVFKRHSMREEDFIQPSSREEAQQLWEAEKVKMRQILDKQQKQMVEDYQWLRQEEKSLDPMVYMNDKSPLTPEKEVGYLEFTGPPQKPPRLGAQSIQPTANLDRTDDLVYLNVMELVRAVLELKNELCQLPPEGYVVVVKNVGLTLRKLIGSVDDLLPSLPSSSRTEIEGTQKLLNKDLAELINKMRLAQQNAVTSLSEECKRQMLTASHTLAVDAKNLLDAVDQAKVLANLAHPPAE
363 human kinases (including Aurora A/B/C) (Homo sapiens, UniProt Q9BYP7), sequence (Q9BYP7 whole entry): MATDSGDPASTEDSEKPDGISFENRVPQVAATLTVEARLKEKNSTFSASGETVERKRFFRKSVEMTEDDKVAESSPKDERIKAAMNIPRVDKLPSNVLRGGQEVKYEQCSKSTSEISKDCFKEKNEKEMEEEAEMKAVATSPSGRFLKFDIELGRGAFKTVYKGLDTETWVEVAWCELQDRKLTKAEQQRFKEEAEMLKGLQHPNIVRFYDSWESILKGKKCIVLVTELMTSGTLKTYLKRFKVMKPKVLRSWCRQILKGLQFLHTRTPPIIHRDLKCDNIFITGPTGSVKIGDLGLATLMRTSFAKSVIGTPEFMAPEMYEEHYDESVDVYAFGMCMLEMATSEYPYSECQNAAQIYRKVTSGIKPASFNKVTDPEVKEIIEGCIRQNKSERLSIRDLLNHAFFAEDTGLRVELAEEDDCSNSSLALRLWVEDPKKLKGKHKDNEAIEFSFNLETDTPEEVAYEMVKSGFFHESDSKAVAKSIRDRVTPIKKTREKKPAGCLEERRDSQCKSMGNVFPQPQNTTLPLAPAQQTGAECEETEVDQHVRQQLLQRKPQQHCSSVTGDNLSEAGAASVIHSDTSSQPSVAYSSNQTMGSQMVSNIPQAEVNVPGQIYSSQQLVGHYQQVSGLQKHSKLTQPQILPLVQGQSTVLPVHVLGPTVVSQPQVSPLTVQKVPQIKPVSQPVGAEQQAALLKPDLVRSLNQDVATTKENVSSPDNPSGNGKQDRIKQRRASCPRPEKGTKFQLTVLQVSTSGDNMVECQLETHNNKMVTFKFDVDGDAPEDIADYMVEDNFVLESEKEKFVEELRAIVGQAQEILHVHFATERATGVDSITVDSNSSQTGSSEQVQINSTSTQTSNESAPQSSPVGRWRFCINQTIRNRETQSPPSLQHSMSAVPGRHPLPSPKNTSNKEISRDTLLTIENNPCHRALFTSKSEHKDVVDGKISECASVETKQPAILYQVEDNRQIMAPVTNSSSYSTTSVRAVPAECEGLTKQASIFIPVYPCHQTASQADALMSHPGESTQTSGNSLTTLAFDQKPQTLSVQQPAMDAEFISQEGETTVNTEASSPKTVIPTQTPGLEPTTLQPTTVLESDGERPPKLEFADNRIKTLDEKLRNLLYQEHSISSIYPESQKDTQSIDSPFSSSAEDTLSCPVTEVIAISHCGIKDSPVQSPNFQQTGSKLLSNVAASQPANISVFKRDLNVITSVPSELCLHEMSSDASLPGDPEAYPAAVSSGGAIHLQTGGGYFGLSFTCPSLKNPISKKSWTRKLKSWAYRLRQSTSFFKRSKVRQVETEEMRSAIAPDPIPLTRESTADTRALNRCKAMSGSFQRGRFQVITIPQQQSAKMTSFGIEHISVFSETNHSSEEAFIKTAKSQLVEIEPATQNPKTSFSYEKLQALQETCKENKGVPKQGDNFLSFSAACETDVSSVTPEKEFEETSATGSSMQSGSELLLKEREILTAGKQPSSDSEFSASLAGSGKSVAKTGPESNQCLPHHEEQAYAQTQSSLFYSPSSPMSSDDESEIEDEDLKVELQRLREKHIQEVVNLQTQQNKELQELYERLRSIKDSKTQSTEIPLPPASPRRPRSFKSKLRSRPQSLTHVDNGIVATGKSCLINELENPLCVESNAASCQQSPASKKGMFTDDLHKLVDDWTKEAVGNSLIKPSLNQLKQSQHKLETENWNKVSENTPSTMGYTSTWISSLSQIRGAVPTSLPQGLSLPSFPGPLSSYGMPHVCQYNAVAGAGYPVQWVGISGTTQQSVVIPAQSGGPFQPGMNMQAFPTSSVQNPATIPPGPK
363 human kinases (including Aurora A/B/C) (Homo sapiens, UniProt P05771), sequence (P05771 whole entry): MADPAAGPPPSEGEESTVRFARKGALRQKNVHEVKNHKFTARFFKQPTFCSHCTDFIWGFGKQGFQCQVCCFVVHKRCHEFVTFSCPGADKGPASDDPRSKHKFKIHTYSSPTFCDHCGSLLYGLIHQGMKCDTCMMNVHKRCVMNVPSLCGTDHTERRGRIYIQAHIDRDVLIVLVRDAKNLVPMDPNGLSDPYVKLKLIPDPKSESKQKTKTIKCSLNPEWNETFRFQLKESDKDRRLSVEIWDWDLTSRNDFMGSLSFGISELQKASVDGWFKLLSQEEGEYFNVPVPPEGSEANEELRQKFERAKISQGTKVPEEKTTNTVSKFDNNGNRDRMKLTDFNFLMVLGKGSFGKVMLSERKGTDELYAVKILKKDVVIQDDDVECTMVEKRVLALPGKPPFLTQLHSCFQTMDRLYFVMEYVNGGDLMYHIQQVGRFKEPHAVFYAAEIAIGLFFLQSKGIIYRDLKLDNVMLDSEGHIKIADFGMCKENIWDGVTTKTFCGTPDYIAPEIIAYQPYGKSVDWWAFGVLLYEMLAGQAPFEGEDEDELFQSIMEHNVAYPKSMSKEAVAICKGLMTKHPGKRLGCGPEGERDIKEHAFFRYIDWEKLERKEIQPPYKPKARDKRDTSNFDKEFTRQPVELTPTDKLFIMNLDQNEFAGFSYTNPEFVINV
363 human kinases (including Aurora A/B/C) (Homo sapiens, UniProt Q13177), sequence (Q13177 whole entry): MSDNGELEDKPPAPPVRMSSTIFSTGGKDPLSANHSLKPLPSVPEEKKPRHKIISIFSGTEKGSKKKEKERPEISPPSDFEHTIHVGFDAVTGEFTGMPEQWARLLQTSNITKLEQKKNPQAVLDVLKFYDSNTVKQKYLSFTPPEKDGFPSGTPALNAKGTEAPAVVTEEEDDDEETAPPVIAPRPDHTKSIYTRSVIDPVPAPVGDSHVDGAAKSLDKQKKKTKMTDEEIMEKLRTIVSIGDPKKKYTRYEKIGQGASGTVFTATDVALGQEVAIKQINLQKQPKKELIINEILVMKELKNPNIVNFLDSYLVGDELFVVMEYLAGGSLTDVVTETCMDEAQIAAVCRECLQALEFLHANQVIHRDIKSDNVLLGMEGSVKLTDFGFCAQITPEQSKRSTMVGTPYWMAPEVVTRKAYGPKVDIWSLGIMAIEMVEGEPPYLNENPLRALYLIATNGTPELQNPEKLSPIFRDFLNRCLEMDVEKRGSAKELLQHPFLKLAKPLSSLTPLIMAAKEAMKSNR

In the case of `O=C(c1cccc(Cl)c1F)N1CCN(Cc2cccc(Nc3nccs3)n2)CC1` [MK-8745], the “% Enzyme Activity (relative to DMSO controls)” value in [1] (500 nM) came out at 89.65%; in assay [2] (500 nM), 94.49%; in assay [3] (500 nM), 99.52%; in assay [4] (500 nM) it was 102.30%; in [5] (500 nM), 95.99%; in [6] (500 nM) it was 106.70%. Moreover, the “% Enzyme Activity (relative to DMSO controls)” value in assay [7] (500 nM) is 80.17%; in [8] (500 nM), 102.92%; in [9] (500 nM), 95.41%; in assay [10] (500 nM), 96.23%; in assay [11] (500 nM) it was 98.44%; in assay [12] (500 nM) it was 97.82%. For the same compound, the remaining activity at 0.5 µM in assay [1] (500 nM) came out at 90.7%; in assay [2] (500 nM), 96%; in assay [3] (500 nM), 99.5%; in assay [4] (500 nM) it was 102%; in assay [5] (500 nM), 96%; in [6] (500 nM), 108%. The remaining activity at 0.5 µM turned out to be 83.5% in assay [7] (500 nM); 105% in [8] (500 nM); 96.5% in assay [9] (500 nM); 98.2% in assay [10] (500 nM); 106% in assay [11] (500 nM); 99.9% in [12] (500 nM).

Consider `CCn1cc(-c2ccnc3[nH]c(-c4cccc(CN(C)C)c4)cc23)c(-c2ccc(NC(=O)N(C)C)cc2)n1` [GSK1070916], for which the remaining activity at 0.1 µM in assay [1] turned out to be 96.9%; in assay [2] it was 106%; in [3], 98%; in [4], 103%; in assay [5], 94.9%; in [6] it was 110%. Moreover, the remaining activity at 0.1 µM is 95.3% in assay [7]; 106% in [8]; 92.6% in [9]; 98.6% in assay [10]; 147% in assay [11]; 103% in [12].

With `O=C(O)[C@]1(Cc2cccc(Nc3nccs3)n2)CC[C@@H](Oc2cccc(Cl)c2F)CC1` [MK-5108], the remaining activity at 0.1 µM in [1] was 89.1%; in assay [2], 93.8%; in assay [3] it was 97.1%; in [4], 90%; in [5], 96.4%; in assay [6], 91.9%. In addition, the remaining activity at 0.1 µM in assay [7] was 41.2%; in assay [8], 97.1%; in [9], 99.8%; in assay [10], 87.4%; in assay [11] it was 46.4%; in assay [12], 97.9%. For the same compound, the remaining activity at 0.5 µM in [1] (500 nM) came to 73.5%; in assay [2] (500 nM) it was 62.2%; in assay [3] (500 nM), 98.5%; in assay [4] (500 nM) it was 104%; in assay [5] (500 nM), 94.4%; in assay [6] (500 nM) it was 63.4%. In addition, the remaining activity at 0.5 µM in assay [7] (500 nM) is 16.4%; in assay [8] (500 nM) it was 98.2%; in assay [9] (500 nM) it was 97.6%; in [10] (500 nM) it was 74%; in assay [11] (500 nM) it was 37%; in assay [12] (500 nM) it was 99.8%.
